From the supplement of paper PMC10883282 come the findings set out here.

Each structure is given as a SMILES string. Structures can show the parent of a compound that is named as a salt. ± gives the standard deviation of the averaged measurements.

This assay has as its system KHOS-NP. Briefly: relative viability vs DMSO control (72 h) (fraction); higher = more viable cells. The method, boiled down: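 Sarcoma cell lines were plated in 384 wells to reach 80–90% confluence, treated after 24 h with 2.5 µl of serially diluted compound and held 72 h at 37 °C, 5% CO2. Relative viability was taken as percent growth from ATPLite readings, averaged over up to triplicate wells. The values were rescaled so that 1 marks full and 0 marks none.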

For the molecule `CCCS(=O)(=O)Nc1ccc(F)c(C(=O)c2c[nH]c3ncc(-c4ccc(Cl)cc4)cc23)c1F` [Vemurafenib], the relative viability came out at 1.08 ± 0.029 (0.00017 µM); 1.074 ± 0.0078 (0.00051 µM); 1.08 ± 0.032 (0.00152 µM); 1.09 ± 0.017 (0.00457 µM); 1.09 ± 0.025 (0.01372 µM); 1.08 ± 0.023 (0.04115 µM). Also, the relative viability (0.1235 µM) came to 1.09 ± 0.03; the relative viability (0.3704 µM) is 1.08 ± 0.03; the relative viability (1.111 µM) stood at 1.07 ± 0.034; the relative viability (3.333 µM) came out at 1.06 ± 0.018; the relative viability (10 µM) turned out to be 0.601 ± 0.031.
As for `Cc1ccc(NC(=O)c2ccc(CN3CCN(C)CC3)cc2)cc1Nc1nc(-c2cccnc2)cs1` [Masitinib], the relative viability reads like this: (0.00017 µM) 1.05 ± 0.026; (0.00051 µM) 1.05 ± 0.035; (0.00152 µM) 1.089 ± 0.0014; (0.00457 µM) 1.083 ± 0.01; (0.01372 µM) 1.06 ± 0.028; (0.04115 µM) 1.09 ± 0.025. Also, the relative viability (0.1235 µM) was determined as 1.04 ± 0.052; the relative viability (0.3704 µM) worked out at 1.01 ± 0.024; the relative viability (1.111 µM) was 0.857 ± 0.018; the relative viability (3.333 µM) was 0.612 ± 0.051; the relative viability (10 µM) came out at 0.185 ± 0.0074.
In the case of `Cc1cnc(Nc2ccc(OCCN3CCCC3)cc2)nc1Nc1cccc(S(=O)(=O)NC(C)(C)C)c1` [Fedratinib], the relative viability runs as follows: (0.00017 µM) 1.09 ± 0.023; (0.00051 µM) 1.08 ± 0.049; (0.00152 µM) 1.08 ± 0.05; (0.00457 µM) 1.09 ± 0.016; (0.01372 µM) 1.07 ± 0.022; (0.04115 µM) 1.06 ± 0.018. Further, the relative viability stood at 1.02 ± 0.029 (0.1235 µM); 1.01 ± 0.039 (0.3704 µM); 0.905 ± 0.046 (1.111 µM); 0.511 ± 0.017 (3.333 µM); 0.216 ± 0.0037 (10 µM).
As for `C[C@@H](c1ccc2nccn2c1)n1nnc2ncc(-c3cnn(C)c3)nc21` [Volitinib], the relative viability runs as follows: (0.00017 µM) 1.07 ± 0.012; (0.00051 µM) 1.09 ± 0.018; (0.00152 µM) 1.09 ± 0.013; (0.00457 µM) 1.091 ± 0.0095; (0.01372 µM) 1.08 ± 0.015; (0.04115 µM) 1.08 ± 0.024. The relative viability (0.1235 µM) stood at 1.07 ± 0.015; the relative viability (0.3704 µM) was found to be 1.06 ± 0.038; the relative viability (1.111 µM) stood at 1.04 ± 0.035; the relative viability (3.333 µM) came out at 1.02 ± 0.011; the relative viability (10 µM) is 0.8916 ± 0.004.
Turning to `COc1cccc2c1C(=O)c1c(O)c3c(c(O)c1C2=O)C[C@@](O)(C(=O)CO)C[C@@H]3O[C@H]1C[C@H](N)[C@H](O)[C@H](C)O1` [Doxorubicin Hydrochloride], the relative viability (0.00017 µM) was determined as 1.09 ± 0.024; the relative viability (0.00051 µM) came to 1.08 ± 0.04; the relative viability (0.00152 µM) came to 1.07 ± 0.042; the relative viability (0.00457 µM) was 1.07 ± 0.0061; the relative viability (0.01372 µM) worked out at 1.02 ± 0.062; the relative viability (0.04115 µM) is 1.04 ± 0.033. Also, the relative viability reads like this: (0.1235 µM) 0.814 ± 0.038; (0.3704 µM) 0.475 ± 0.029; (1.111 µM) 0.266 ± 0.014; (3.333 µM) 0.0899 ± 0.0038; (10 µM) 0.058 ± 0.0052.
As for `CCN1CCN(Cc2ccc(Nc3ncc(F)c(-c4cc(F)c5nc(C)n(C(C)C)c5c4)n3)nc2)CC1` [Abemaciclib], the relative viability turned out to be 1.04 ± 0.032 (0.00017 µM); 1.02 ± 0.029 (0.00051 µM); 1.02 ± 0.018 (0.00152 µM); 1.03 ± 0.017 (0.00457 µM); 1.033 ± 0.0059 (0.01372 µM); 1.033 ± 0.01 (0.04115 µM). Further, the relative viability runs as follows: (0.1235 µM) 1.04 ± 0.014; (0.3704 µM) 1.055 ± 0.0084; (1.111 µM) 1.01 ± 0.048; (3.333 µM) 0.753 ± 0.036; (10 µM) 0.6015 ± 0.0059.
For the molecule `C=CC(=O)N1CCC([C@@H]2CCNc3c(C(N)=O)c(-c4ccc(Oc5ccccc5)cc4)nn32)CC1` [Zanubrutinib], the relative viability is, setting by setting: (0.00017 µM) 1.01 ± 0.015; (0.00051 µM) 1.03 ± 0.024; (0.00152 µM) 1.03 ± 0.032; (0.00457 µM) 1.01 ± 0.015; (0.01372 µM) 1.041 ± 0.0094; (0.04115 µM) 1.05 ± 0.018. Besides, the relative viability runs as follows: (0.1235 µM) 1.01 ± 0.013; (0.3704 µM) 1.04 ± 0.015; (1.111 µM) 1.02 ± 0.023; (3.333 µM) 1.01 ± 0.029; (10 µM) 1.05 ± 0.03.
`COc1cc2/c(=N/c3ccc(Br)cc3F)nc[nH]c2cc1OCC1CCN(C)CC1` [Vandetanib] returned a relative viability (0.00017 µM) of 1.05 ± 0.032; a relative viability (0.00051 µM) of 1.036 ± 0.0034; a relative viability (0.00152 µM) of 1.04 ± 0.014; a relative viability (0.00457 µM) of 1.05 ± 0.018; a relative viability (0.01372 µM) of 1.05 ± 0.045; a relative viability (0.04115 µM) of 1.04 ± 0.029. The relative viability was 1.05 ± 0.024 (0.1235 µM); 1.03 ± 0.015 (0.3704 µM); 1.02 ± 0.017 (1.111 µM); 0.888 ± 0.044 (3.333 µM); 0.551 ± 0.023 (10 µM).
On to `C[C@@H]1COCCN1c1cc(-c2ccnn2C)c2ccnc(-c3ccn[nH]3)c2n1`, for which the relative viability runs as follows: (0.00017 µM) 1.07 ± 0.036; (0.00051 µM) 1.07 ± 0.012; (0.00152 µM) 1.07 ± 0.025; (0.00457 µM) 1.06 ± 0.029; (0.01372 µM) 1.06 ± 0.02; (0.04115 µM) 1.09 ± 0.026. In addition, the relative viability is, setting by setting: (0.1235 µM) 1 ± 0.037; (0.3704 µM) 0.898 ± 0.025; (1.111 µM) 0.538 ± 0.042; (3.333 µM) 0.377 ± 0.0063; (10 µM) 0.281 ± 0.026.
Turning to `C[C@]1(O)C[C@@H](c2nc(-c3ccc4ccc(-c5ccccc5)nc4c3)c3c(N)nccn32)C1` [Linsitinib], the relative viability (0.00017 µM) is 1.11 ± 0.025; the relative viability (0.00051 µM) was 1.09 ± 0.011; the relative viability (0.00152 µM) was 1.07 ± 0.025; the relative viability (0.00457 µM) was found to be 1.08 ± 0.011; the relative viability (0.01372 µM) came to 1.08 ± 0.026; the relative viability (0.04115 µM) is 1.08 ± 0.012. Moreover, the relative viability was 1.08 ± 0.029 (0.1235 µM); 1.07 ± 0.05 (0.3704 µM); 1.06 ± 0.064 (1.111 µM); 1.02 ± 0.027 (3.333 µM); 0.8696 ± 0.0082 (10 µM).
